Assay [1] has as its target T1, CDK1:Cyclin-B (Homo sapiens, UniProt P06493).
T1 construct: purchased New England Biolabs, Beverly, Mass; 6020; host or cells: insect cells
Description: CDK1 Screening Assay. Type of assay: biochemical. To be noted: 33P-γ-ATP incorporation, 10 μM ATP. Put shortly:
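Human CDK1/cyclin B co-expressed in insect cells (30 ng/well) in 50 mM Tris pH 8, 10 mM MgCl2, with 10 μM ATP, 33P-γ-ATP and 0.025 μM biotinylated histone H1 peptide (reaction-mix levels); 1% DMSO final. 1 h at 30° C. 33P incorporation into streptavidin-captured peptide by scintillation counting.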

Assay [2] deals with HCT-116 colon carcinoma. Kind of assay: Inhibition of cell proliferation (14C-thymidine incorporation), HCT-116. Type of assay: cell-based. As to conditions: Homo sapiens, HCT-116, HCT116. An outline of the steps:
(§1)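 Cells (3000-8000/well) grown 24 h at 37° C, 5% CO2, then given compound in DMSO for 24 h before adding methyl 14C-thymidine (0.2 uCi/well) for a further 24 h with drug. After PBS washes, incorporation into DNA counted by scintillation.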
Background: Incorporation of labelled thymidine or its analogues reports DNA synthesis.

Assay [3] concerns HeLa cervical adenocarcinoma. Kind of assay: Inhibition of cell proliferation (14C-thymidine incorporation), HeLa.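 Further: HeLa cells in 96-well scintillating plates, compound for 24 h then 24 h more with 14C-thymidine, counting label built into new DNA against DMSO-only control wells.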 The class given is cell-based. As to conditions: Homo sapiens.
Assay [4] has as its system A375 malignant melanoma. Description: Inhibition of cell proliferation (14C-thymidine incorporation), A375. Type of assay: cell-based, human. As to conditions: Homo sapiens, A-375. Put shortly: as §1
In assay [5] the target is T2, VEGF-R2 (Rattus norvegicus, UniProt O08775).
T2 construct: polyhistidine (N)
T2 sequence (O08775 786-1343): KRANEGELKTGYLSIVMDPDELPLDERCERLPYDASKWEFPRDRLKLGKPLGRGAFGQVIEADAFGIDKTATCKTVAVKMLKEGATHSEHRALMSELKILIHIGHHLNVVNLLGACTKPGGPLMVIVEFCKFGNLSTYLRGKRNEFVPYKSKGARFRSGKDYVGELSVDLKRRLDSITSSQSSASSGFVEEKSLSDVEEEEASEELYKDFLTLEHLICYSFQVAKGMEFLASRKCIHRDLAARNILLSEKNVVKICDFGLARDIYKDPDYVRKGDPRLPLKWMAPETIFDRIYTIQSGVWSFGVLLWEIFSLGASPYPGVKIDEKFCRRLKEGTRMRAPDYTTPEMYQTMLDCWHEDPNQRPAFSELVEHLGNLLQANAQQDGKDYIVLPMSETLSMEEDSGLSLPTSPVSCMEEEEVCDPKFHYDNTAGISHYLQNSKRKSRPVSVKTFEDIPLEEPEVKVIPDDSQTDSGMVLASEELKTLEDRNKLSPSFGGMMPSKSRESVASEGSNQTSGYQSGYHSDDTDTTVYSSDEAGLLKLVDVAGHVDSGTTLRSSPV
Description: VEGF-R2 Screening Assay. The class given is biochemical. To be noted: 33P-γ-ATP incorporation, 10 μM ATP. An outline of the steps:
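The N-terminally His-tagged rat VEGF-R2 kinase domain (aa 786-1343), diluted in 50 mM Tris-HCl pH 8.0 with 0.1% BSA, phosphorylated a biotinylated histone-H1 peptide with 33P-γ-ATP on Flashplates for 1 h at 30 °C in 1% DMSO. After washes with EDTA/PBS, immobilized 33P was counted by scintillation.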

The target in assay [6] is T3, Aurora-A (Mus musculus, UniProt P97477).
T3 construct: made in house; host or cells: sf9 insect cells
T3 sequence (P97477 1-395): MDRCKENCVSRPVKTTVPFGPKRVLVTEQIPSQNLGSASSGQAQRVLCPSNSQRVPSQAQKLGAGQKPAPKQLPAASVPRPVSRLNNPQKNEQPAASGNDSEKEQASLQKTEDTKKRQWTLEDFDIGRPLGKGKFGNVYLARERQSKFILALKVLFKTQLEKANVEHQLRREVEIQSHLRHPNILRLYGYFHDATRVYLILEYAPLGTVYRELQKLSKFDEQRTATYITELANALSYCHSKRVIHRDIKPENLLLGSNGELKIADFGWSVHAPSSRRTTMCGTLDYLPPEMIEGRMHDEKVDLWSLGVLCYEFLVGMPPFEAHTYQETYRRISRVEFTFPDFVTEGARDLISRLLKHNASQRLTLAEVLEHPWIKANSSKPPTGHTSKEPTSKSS
Kind of assay: Aurora-A Screening Assay. The class given is biochemical, murine. As to conditions: 33P-γ-ATP incorporation, 10 μM ATP.

Assay [7] addresses T4, RET (Homo sapiens, UniProt P07949).
T4 construct: the RET cytoplasmic domain consisting of the last 492 amino acids of the intracellular domain of the RET tyrosine kinase; histidine tag (N); made in house; host or cells: Hi5 insect cells
T4 sequence (P07949 658-1114 limits assumed): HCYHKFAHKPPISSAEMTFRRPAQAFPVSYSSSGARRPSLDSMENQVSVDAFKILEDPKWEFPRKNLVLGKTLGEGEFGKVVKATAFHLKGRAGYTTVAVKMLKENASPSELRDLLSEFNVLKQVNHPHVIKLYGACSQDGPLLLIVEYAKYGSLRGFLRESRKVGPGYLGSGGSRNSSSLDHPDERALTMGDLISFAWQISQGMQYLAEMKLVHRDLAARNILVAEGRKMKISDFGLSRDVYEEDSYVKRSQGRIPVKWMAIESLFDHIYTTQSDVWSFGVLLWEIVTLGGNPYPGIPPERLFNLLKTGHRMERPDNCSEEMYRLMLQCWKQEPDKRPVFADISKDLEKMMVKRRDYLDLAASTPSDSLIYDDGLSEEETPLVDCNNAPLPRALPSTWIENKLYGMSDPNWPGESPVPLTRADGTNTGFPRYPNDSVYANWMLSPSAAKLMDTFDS
Kind of assay: RET Kinase Screening Assay. The class given is biochemical. As to conditions: 33P-γ-ATP incorporation, 10 μM ATP.

A value given as a limit tells only on which side of the number the result lay.

T1 sequence (P06493 whole entry): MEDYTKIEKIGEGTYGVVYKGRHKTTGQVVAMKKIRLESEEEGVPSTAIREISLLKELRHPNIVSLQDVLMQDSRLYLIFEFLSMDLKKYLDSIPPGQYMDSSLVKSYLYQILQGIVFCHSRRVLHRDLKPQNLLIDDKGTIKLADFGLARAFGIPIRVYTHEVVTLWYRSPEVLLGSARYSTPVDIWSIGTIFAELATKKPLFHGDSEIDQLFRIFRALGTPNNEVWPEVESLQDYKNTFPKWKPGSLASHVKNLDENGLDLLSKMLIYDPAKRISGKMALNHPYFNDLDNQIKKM
T1 sequence (P14635 whole entry partner): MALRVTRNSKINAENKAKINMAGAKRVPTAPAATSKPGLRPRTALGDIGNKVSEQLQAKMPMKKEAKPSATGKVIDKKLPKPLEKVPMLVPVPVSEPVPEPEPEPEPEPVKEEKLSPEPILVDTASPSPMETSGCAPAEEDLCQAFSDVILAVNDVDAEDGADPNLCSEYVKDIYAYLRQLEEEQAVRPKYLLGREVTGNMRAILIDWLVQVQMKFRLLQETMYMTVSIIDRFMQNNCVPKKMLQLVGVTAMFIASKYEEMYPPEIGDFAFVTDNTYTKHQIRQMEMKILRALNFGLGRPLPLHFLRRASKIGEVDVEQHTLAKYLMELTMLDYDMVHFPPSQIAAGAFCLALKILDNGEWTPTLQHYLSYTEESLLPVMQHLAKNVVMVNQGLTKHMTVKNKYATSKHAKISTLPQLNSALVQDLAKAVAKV

Regarding `COc1ccccc1Nc1nccc(-c2c[nH]c3ncccc23)n1` [Cpd 7, (2-Methoxy-phenyl)-[4-(1H-pyrrolo[2,3-b]pyridin-3-yl)-pyrimidin-2-yl]-amine], the IC50 in assay [1] is 0.044 µM; in assay [2] it was 0.29 µM; in assay [3] it was 0.35 µM; in assay [4], 350 nM; in assay [5], 0.82 µM; in assay [6], 0.497 µM. The compound also displayed an IC50 in assay [7] greater than 10 µM.
In the case of `Cc1ccc(Nc2nccc(-c3c[nH]c4ncccc34)n2)cc1` [Cpd 10, [4-(1H-Pyrrolo[2,3-b]pyridin-3-yl)-pyrimidin-2-yl]-p-tolyl-amine], the IC50 in assay [1] stood at 0.04 µM; in assay [2], 0.23 µM; in assay [3], 0.22 µM; in assay [4] it was 250 nM; in assay [5], 0.2 µM; in assay [6], 0.29 µM. For the same compound, the IC50 in assay [7] is roughly 10 µM.
For the compound `CN(C)CCc1ccc(Nc2nccc(-c3c[nH]c4ncccc34)n2)c(Cl)c1` [Cpd 54], the IC50 came out at 0.0612 µM in assay [1]; 0.269 µM in assay [2]; 0.281 µM in assay [3]; 215 nM in assay [4]; 2.31 µM in assay [5]; 0.908 µM in assay [6]. For the same compound, half-maximal inhibition in assay [7] (IC50) required 4.06 µM.
Turning to `Cc1cc(CCN2CCCC2)ccc1Nc1nccc(-c2c[nH]c3ncccc23)n1` [Cpd 48], the IC50 in assay [2] amounted to 0.00301 µM; in assay [3] it was 0.00255 µM; in assay [4], 2.55 nM; in assay [5] it was 0.875 µM; in assay [6] it was 0.86 µM; in assay [7] it was 3.52 µM.
As for `COc1ccc(Nc2nccc(-c3c[nH]c4ncccc34)n2)cc1` [Cpd 5, (4-Methoxy-phenyl)-[4-(1H-pyrrolo[2,3-b]pyridin-3-yl)-pyrimidin-2-yl]-amine], the IC50 in assay [1] was 0.011 µM; in assay [2], 0.034 µM; in assay [3], 0.059 µM; in assay [4] it was 50 nM; in assay [5] it was 0.238 µM; in assay [6] it was 0.134 µM. The compound also returned an IC50 in assay [7] of 1.14 µM.
In the case of `c1cnc2[nH]cc(-c3ccnc(NC4CCNCC4)n3)c2c1` [Cpd 65, Piperidin-4-yl-[4-(1H-pyrrolo[2,3-b]pyridin-3-yl)pyrimidin-2-yl]-amine], the IC50 amounted to 0.0603 µM in assay [1]; 0.015 µM in assay [2]; 0.0269 µM in assay [3]; 21.8 nM in assay [4]; 1.07 µM in assay [5]; 1.3 µM in assay [6]. In assay [7], this compound registered an IC50 of 1.23 µM.
With `Clc1ccccc1Nc1nccc(-c2c[nH]c3ncccc23)n1` [Cpd 12, (2-Chloro-phenyl)-[4-(1H-pyrrolo[2,3-b]pyridin-3-yl)-pyrimidin-2-yl]-amine], the IC50 was found to be 0.0092 µM in assay [1]; 0.16 µM in assay [2]; 0.14 µM in assay [3]; 100 nM in assay [4]; 0.878 µM in assay [5]; 0.287 µM in assay [6]. In assay [7], this compound yielded an IC50 greater than 10 µM.
As to `Cc1cc(CCN2CCOCC2)ccc1Nc1nccc(-c2c[nH]c3ncccc23)n1` [Cpd 49, {4-[2-(Morpholin-4-yl)ethyl]-2-methylphenyl}-[4-(1H-pyrrolo[2,3-b]pyridin-3-yl)-pyrimidin-2-yl]-amine], the IC50 in assay [1] is 0.00196 µM; in assay [2] it was 0.00294 µM; in assay [3], 0.00252 µM; in assay [4], 2.82 nM; in assay [5], 0.75 µM; in assay [6] it was 0.333 µM. 2.28 µM corresponded to half-maximal inhibition in assay [7] (IC50).
As to `Nc1ccc(Nc2nccc(-c3c[nH]c4ncccc34)n2)cc1` [Cpd 37, (4-Aminophenyl)-[4-(1H-pyrrolo[2,3-b]pyridin-3-yl)-pyrimidin-2-yl]-amine], the IC50 in assay [1] stood at 0.035 µM; in assay [2] it was 0.0828 µM; in assay [3], 0.194 µM; in assay [4], 185 nM; in assay [5], 0.211 µM; in assay [6] it was 0.386 µM. In addition, half-maximal inhibition in assay [7] (IC50) required 1.62 µM.
In the case of `OCCc1ccc(Nc2nccc(-c3c[nH]c4ncccc34)n2)c(Cl)c1` [Cpd 52], the IC50 in assay [1] was determined as 0.0087 µM; in assay [2] it was 0.121 µM; in assay [3], 0.162 µM; in assay [4], 134 nM; in assay [5], 0.322 µM; in assay [6], 0.0757 µM. Also, the IC50 in assay [7] turned out to be 0.54 µM.
As for `CNCCc1ccc(Nc2nccc(-c3c[nH]c4ncccc34)n2)c(Cl)c1` [Cpd 53], the IC50 is 0.0441 µM in assay [1]; 0.127 µM in assay [2]; 0.123 µM in assay [3]; 91.3 nM in assay [4]; 1.31 µM in assay [5]; 0.408 µM in assay [6]. In assay [7], this compound showed an IC50 of 2.36 µM.
In the case of `N[C@H]1CC[C@H](Nc2nccc(-c3c[nH]c4ncccc34)n2)CC1` [Cpd 42, trans-N-[4-(1H-Pyrrolo[2,3-b]pyridin-3-yl)-pyrimidin-2-yl]-cyclohexane-1,4-diamine], the IC50 in assay [1] came out at 0.002 µM; in assay [2], 0.000353 µM; in assay [3] it was 0.00112 µM; in assay [4], 0.743 nM; in assay [5], 7.88 µM; in assay [6] it was 0.917 µM.
Regarding `Cc1cc(CCN2CCN(C)CC2)ccc1Nc1nccc(-c2c[nH]c3ncccc23)n1` [Cpd 51, {4-[2-(4-Methylpiperizin-1-yl)ethyl]-2-methylphenyl}-[4(1H-pyrrolo[2,3-b]pyridin-3-yl)-pyrimidin-2-yl]-amine], the IC50 came to 0.0026 µM in assay [1]; 0.00361 µM in assay [2]; 0.00466 µM in assay [3]; 3.52 nM in assay [4]; 1.25 µM in assay [5]; 0.895 µM in assay [6].
As to `O[C@H]1CC[C@H](Nc2nccc(-c3c[nH]c4ncccc34)n2)CC1` [Cpd 18, trans-4-[4-(1H-Pyrrolo[2,3-b]pyridin-3-yl)-pyrimidin-2-ylamino]-cyclohexanol], the half-inhibitory concentration (IC50) in assay [1] amounted to 0.0076 µM; in assay [2] it was 0.00225 µM; in assay [3] it was 0.00161 µM; in assay [4], 1.77 nM; in assay [5] it was 1.79 µM; in assay [6] it was 0.335 µM.
Turning to `Cc1ccc(Nc2nccc(-c3c[nH]c4ncccc34)n2)c(C)c1` [Cpd 33, (2,4-Dimethylphenyl)-[4-(1H-pyrrolo[2,3-b]pyridin-3-yl)-pyrimidin-2-yl]-amine], the IC50 in assay [1] was determined as 0.001 µM; in assay [2], 0.000542 µM; in assay [3], 0.000993 µM; in assay [4] it was 0.0467 nM; in assay [5], 1.14 µM; in assay [6], 0.408 µM.
As for `Cc1[nH]c2ncccc2c1-c1ccnc(N[C@H]2CC[C@H](N)CC2)n1` [Cpd 57, trans-N-[4-(2-Methyl-1H-pyrrolo[2,3-b]pyridin-3-yl)-pyrimidin-2-yl]-cyclohexane-1,4-diamine], the IC50 in assay [1] turned out to be 0.283 µM; in assay [2] it was 0.0732 µM; in assay [3], 0.135 µM; in assay [4], 97.3 nM; in assay [5], 10 µM; in assay [6], 3.98 µM.
Turning to `CC(=O)N1CCC(Nc2nccc(-c3c[nH]c4ncccc34)n2)CC1` [Cpd 64, 1-{4-[4-(1H-pyrrolo[2,3-b]pyridin-3-yl)pyrimidin-2-ylamino]piperidin-1-yl}ethanone], the IC50 in assay [1] came to 0.0498 µM; in assay [2], 0.0689 µM; in assay [3] it was 0.136 µM; in assay [4] it was 155 nM; in assay [5] it was 10 µM; in assay [6] it was 1.68 µM.

The IC50 is the concentration needed to halve the response being measured. The low end stands for higher potency, the high end for lower potency.

Values taken from patent US7855205B2, “Pyrimidinyl substituted fused-pyrrolyl compounds useful in treating kinase disorders” (Janssen Pharmaceutica NV, priority 2004, dated 2010).
